Laboratory results from patent publication US20080287653A1, “METHOD FOR PRODUCING INHIBITORS AND INHIBITORS FORMED THEREFROM” (THE UNIVERSITY OF AKRON, priority 2007, published 2008).
Marks after values point to notes of the source that are not given here. One block for each compound: values may come before it. Non-standard residues stand in square brackets, D forms with d. Residues, ends and D or L forms follow the SMILES beside them. Lys(Thioacetyl) = CC(=S)NCCCC[C@H](N)C(=O)O

How the values were obtained:
SIRT1 = target: T1, SIRT1 (Homo sapiens, UniProt Q96EB6); test: HPLC-based SIRT1 inhibition assay with purified GST-SIRT1; type: biochemical
T1 construct: made in house
T1 sequence (Q96EB6 1-747): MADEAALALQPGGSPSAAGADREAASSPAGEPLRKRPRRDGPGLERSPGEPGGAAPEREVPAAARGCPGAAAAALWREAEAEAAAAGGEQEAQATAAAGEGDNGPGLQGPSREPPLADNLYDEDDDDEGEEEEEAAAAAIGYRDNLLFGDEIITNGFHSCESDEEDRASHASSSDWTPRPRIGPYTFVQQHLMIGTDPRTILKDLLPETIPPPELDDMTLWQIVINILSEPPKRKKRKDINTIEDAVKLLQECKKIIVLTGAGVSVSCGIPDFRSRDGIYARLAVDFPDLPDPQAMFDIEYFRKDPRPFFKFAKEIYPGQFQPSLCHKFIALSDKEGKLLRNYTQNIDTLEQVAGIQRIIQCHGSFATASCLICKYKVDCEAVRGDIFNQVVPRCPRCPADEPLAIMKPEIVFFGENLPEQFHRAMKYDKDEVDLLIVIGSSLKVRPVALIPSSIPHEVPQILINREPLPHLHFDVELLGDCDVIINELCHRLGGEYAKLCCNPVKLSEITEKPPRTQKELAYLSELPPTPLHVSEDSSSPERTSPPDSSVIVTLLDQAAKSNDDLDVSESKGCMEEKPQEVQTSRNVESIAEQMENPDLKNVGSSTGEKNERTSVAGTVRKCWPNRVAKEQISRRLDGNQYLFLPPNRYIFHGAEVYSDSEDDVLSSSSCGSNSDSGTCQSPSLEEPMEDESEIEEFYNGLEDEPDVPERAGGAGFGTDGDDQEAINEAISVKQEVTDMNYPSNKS
Protocol: Inhibition assays with purified SIRT1, SIRT2, and SIRT3. GST-SIRT1 that could be produced in a laboratory was used for the SIRT1 inhibition assay. SIRT2 and SIRT3 are obtainable from commercial sources known to those skilled in the art. Consistent HPLC-based assay procedures were used for the inhibition assays with SIRT1, SIRT2, and SIRT3. […] An enzymatic reaction was initiated by the addition of an enzyme at 37° C. and was allowed to be incubated at 37° C.: 10 minutes as follows: for SIRT1 assay, or 60 minutes for SIRT2 and SIRT3 assays. Incubation was quenched at the indicated time with the following stop solution: 100 mM HCl and 0.16 M acetic acid. […] All peptide stock solutions were prepared in ddH2O. IC50 values were estimated from Dixon plots (1/v0 vs. [inhibitor]) as an indication of the inhibition potency.

SIRT2 = target: T2, SIRT2 (Homo sapiens, UniProt Q8IXJ6); test: HPLC-based SIRT2 inhibition assay with purified SIRT2; type: biochemical; conditions: SIRT2 vs SIRT1
T2 construct: purchased
T2 sequence (Q8IXJ6 1-389): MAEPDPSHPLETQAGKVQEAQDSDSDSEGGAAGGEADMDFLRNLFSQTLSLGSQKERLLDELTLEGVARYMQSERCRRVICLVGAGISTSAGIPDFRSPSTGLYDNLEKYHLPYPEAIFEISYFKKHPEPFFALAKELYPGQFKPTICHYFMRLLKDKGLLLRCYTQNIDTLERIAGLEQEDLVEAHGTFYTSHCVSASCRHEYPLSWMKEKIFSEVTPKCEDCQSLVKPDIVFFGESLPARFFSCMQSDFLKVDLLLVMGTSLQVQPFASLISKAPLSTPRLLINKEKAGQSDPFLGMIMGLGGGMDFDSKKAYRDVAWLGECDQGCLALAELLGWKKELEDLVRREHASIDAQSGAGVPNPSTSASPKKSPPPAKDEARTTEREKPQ
Protocol: (§1) Inhibition assays with purified SIRT1, SIRT2, and SIRT3. GST-SIRT1 that could be produced in a laboratory was used for the SIRT1 inhibition assay. SIRT2 and SIRT3 are obtainable from commercial sources known to those skilled in the art. Consistent HPLC-based assay procedures were used for the inhibition assays with SIRT1, SIRT2, and SIRT3. In brief, an inhibition assay solution had the following components: 25 mM (or 50 mM for SIRT2 assay) Tris.HCl (pH 8.0) 137 mM NaCl, 2.7 mM KCl, 1 mM MgCl2, 1 mg/mL BSA (SIGMA Cat. #A3803 with reduced fatty acid content, for SIRT2 assay only), 0.5 mM β-NAD^+, 0.3 mM peptide substrate (peptide 1b for SIRT1 and SIRT2 assays; peptide 3b for SIRT3 assay), an inhibitor (peptide 1a, 2, or 3a) with varied concentrations including 0, and an enzyme (GST-SIRT1, 0.15 μM; SIRT2, 0.3 μM; or SIRT3, 2.0 μM). […] An enzymatic reaction was initiated by the addition of an enzyme at 37° C. and was allowed to be incubated at 37° C.: 10 minutes as follows: for SIRT1 assay, or 60 minutes for SIRT2 and SIRT3 assays. […] The enzymatic deacetylation products (peptide 1c in SIRT1 and SIRT2 assays; peptide 3c in SIRT3 assay) were confirmed by their comigration with the chemically synthesized authentic samples and by MALDI-TOF mass spectrometric analysis, and were quantified by HPLC peak integration and comparison with those of synthetic authentic samples. […]

SIRT3 = target: T3, SIRT3 (Homo sapiens, UniProt Q9NTG7); test: HPLC-based SIRT3 inhibition assay with purified SIRT3; type: biochemical; conditions: SIRT3 vs SIRT1
T3 construct: purchased
T3 sequence (Q9NTG7 1-399): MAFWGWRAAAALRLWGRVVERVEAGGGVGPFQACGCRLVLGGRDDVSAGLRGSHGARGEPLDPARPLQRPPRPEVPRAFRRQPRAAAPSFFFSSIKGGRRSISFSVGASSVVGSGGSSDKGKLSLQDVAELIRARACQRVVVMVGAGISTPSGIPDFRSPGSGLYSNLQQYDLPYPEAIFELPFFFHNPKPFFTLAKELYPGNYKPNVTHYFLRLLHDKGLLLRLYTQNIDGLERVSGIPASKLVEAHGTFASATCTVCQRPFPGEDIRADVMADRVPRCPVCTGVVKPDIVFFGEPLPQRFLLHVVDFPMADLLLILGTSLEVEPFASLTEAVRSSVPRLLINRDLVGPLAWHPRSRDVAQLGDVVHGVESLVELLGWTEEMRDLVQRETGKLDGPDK
Protocol: as §1

HDAC8 [1] = target: T4, HDAC8 (Homo sapiens, UniProt Q9BY41); test: HPLC-based assay with purified HDAC8 (de(thio)acetylation of peptides); type: biochemical; design: key to HDAC8 (sensitive / resistant to HDAC8): +: Sensitive to HDAC8; —: Resistant to HDAC8; conditions: enzymatic dethioacetylation by HDAC8
T4 construct: purchased
T4 sequence (Q9BY41 1-377): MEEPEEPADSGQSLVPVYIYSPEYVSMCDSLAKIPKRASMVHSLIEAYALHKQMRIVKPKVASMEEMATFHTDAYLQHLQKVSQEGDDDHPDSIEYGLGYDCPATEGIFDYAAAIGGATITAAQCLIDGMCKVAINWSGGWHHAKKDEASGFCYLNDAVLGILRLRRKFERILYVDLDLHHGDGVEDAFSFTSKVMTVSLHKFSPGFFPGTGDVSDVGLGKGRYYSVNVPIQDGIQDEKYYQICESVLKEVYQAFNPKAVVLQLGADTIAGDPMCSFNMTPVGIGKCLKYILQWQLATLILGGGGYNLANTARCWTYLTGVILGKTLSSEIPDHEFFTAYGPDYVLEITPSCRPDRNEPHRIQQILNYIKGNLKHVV
Protocol: To test the foregoing premise, peptides 1b, 2, and 3a were allowed to be incubated for 2 hours at room temperature in the HDAC8 assay buffer in a HPLC-based HDAC8 assay. […] FIG. 5 provides representative HPLC chromatograms from HDAC8 assays with peptides 1b, 2, and 3a. All assays were performed in duplicate and essentially the same HPLC chromatograms were obtained for the duplicates. The small peak with tR˜27 minutes in the second chromatogram was from a minor impurity in the purified peptide 2 sample, rather than the dethioacetylated product. The lack of detectable dethioacetylation of peptide 3a was apparent from the absence of a peak with tR˜34 minutes, shown for peptide 3c in the third chromatogram.
Assay with purified HDAC8. The purified HDAC8 could be obtained from a commercial source for use with a HPLC-based HDAC8 assay. In brief, a HDAC8 assay solution had the following components: 25 mM Tris.HCl (pH 8.0), 137 mM NaCl, 2.7 mM KCl, 1 mM MgCl2, 1 mg/mL BSA (SIGMA Cat. #A3803 with reduced fatty acid content), 0.3 mM peptide 1b, 2, or 3a, and 1.5 μM HDAC8. […] An enzymatic reaction was initiated by the addition of HDAC8 at room temperature and was allowed to be incubated at room temperature for 2 hours before being quenched with the following stop solution: 1.0 M HCl and 0.16 M acetic acid. The quenched assay solutions were directly injected into a reversed-phase HPLC C18 column (100 Å, 0.46×25 cm), eluting with the following gradients of ddH2O containing 0.05% (v/v) trifluoroacetic acid (mobile phase A) and acetonitrile containing 0.05% (v/v) trifluoroacetic acid (mobile phase B): linear increase from 0% B to 35% B (for the assay with peptide 2 or 1b) or 40% B (for the assay with peptide 3a or […]) from 0-40 minutes (1 mL/min), and UV monitoring at 214 nm. […] The enzymatically formed peptide 1c was confirmed by its comigration with the chemically synthesized authentic sample and by MALDI-TOF mass spectrometric analysis, and was quantified by HPLC peak integration and comparison with that of synthetic authentic sample.

SIRT1, SIRT2, and SIRT3 = test: Dethioacetylation of inhibitor peptides under the sirtuin inhibition assay conditions; type: biochemical, human; conditions: same assay conditions as SIRT1/SIRT2/SIRT3 inhibition assays
Protocol: Inhibition assays with purified SIRT1, SIRT2, and SIRT3. GST-SIRT1 that could be produced in a laboratory was used for the SIRT1 inhibition assay. SIRT2 and SIRT3 are obtainable from commercial sources known to those skilled in the art. Consistent HPLC-based assay procedures were used for the inhibition assays with SIRT1, SIRT2, and SIRT3. In brief, an inhibition assay solution had the following components: 25 mM (or 50 mM for SIRT2 assay) Tris.HCl (pH 8.0) 137 mM NaCl, 2.7 mM KCl, 1 mM MgCl2, 1 mg/mL BSA (SIGMA Cat. #A3803 with reduced fatty acid content, for SIRT2 assay only), 0.5 mM β-NAD^+, 0.3 mM peptide substrate (peptide 1b for SIRT1 and SIRT2 assays; peptide 3b for SIRT3 assay), an inhibitor (peptide 1a, 2, or 3a) with varied concentrations including 0, and an enzyme (GST-SIRT1, 0.15 μM; SIRT2, 0.3 μM; or SIRT3, 2.0 μM). […] An enzymatic reaction was initiated by the addition of an enzyme at 37° C. and was allowed to be incubated at 37° C.: 10 minutes as follows: for SIRT1 assay, or 60 minutes for SIRT2 and SIRT3 assays. Incubation was quenched at the indicated time with the following stop solution: 100 mM HCl and 0.16 M acetic acid. The conversion of the limiting substrate to the product was maintained at ≦12%. The quenched assay solutions were directly injected into a reversed-phase HPLC C18 column (100 Å, 0.46×25 cm), eluting with the following gradients of ddH2O containing 0.05% (v/v) trifluoroacetic acid (mobile phase A) and acetonitrile containing 0.05% (v/v) trifluoroacetic acid (mobile phase B): linear increase from 0% B to 35% B (for SIRT1 assay) or 40% B (for SIRT2 and SIRT3 assays) from 0-40 minutes (1 mL/min), and UV monitoring at 214 nm. The enzymatic deacetylation products (peptide 1c in SIRT1 and SIRT2 assays; peptide 3c in SIRT3 assay) were confirmed by their comigration with the chemically synthesized authentic samples and by MALDI-TOF mass spectrometric analysis, and were quantified by HPLC peak integration and comparison with those of synthetic authentic samples. […] All peptide stock solutions were prepared in ddH2O. […]

HDAC8 [2] = target: T4, HDAC8; conditions: inventors' earlier work, Fatkins et al.; cited from earlier work

Structure (SMILES): CC(=O)N[C@@H](CCCCNC(C)=S)C(=O)O [N^α-acetyl-N^ε-thioacetyl-lysine, L-N^α-acetyl-N^ε-thioacetyl-lysine]
SIRT1 inhibition at 2 mM (SIRT1): No inhibition
SIRT1 inhibition at 2 mM (SIRT1; listed as L-N^α-acetyl-N^ε-thioacetyl-lysine): did not exhibit any SIRT1 inhibition

Structure (SMILES): CSCC[C@H](NC(=O)[C@H](CC(C)C)NC(=O)[C@H](CCCCNC(C)=S)NC(=O)[C@H](CCCCN)NC(=O)[C@H](Cc1c[nH]cn1)NC(=O)[C@H](CCCNC(=N)N)NC(=O)[C@H](CO)NC(=O)[C@@H](NC(=O)[C@H](CO)NC(=O)[C@H](CCC(N)=O)NC(=O)CNC(=O)[C@H](CCCCN)NC(=O)[C@@H](N)CCCCN)[C@@H](C)O)C(=O)N[C@@H](Cc1ccccc1)C(=O)N[C@@H](CCCCN)C(=O)N[C@H](C(=O)N[C@@H](CCC(=O)O)C(=O)NCC(=O)O)[C@@H](C)O [Peptide 1a]
inhibition potency against SIRT2 relative to that against SIRT1 (SIRT2): comparable inhibition potency
inhibition potency weaker against SIRT3 than against SIRT1 (SIRT3): approximately 35 fold
HDAC8 (sensitive / resistant to HDAC8) (HDAC8 [1]): +^c
formation of dethioacetylated peptide under sirtuin inhibition assay conditions (SIRT1, SIRT2, and SIRT3): did not give rise to detectable formation
de(thio)acetylation by HDAC8 (previously demonstrated) (HDAC8 [2]): comparably de(thio)acetylated by HDAC8

Structure (SMILES): CSCC[C@H](NC(=O)[C@H](CC(C)C)NC(=O)[C@H](CCCCNC(C)=S)NC(=O)[C@H](CCCCN)NC(=O)[C@@H](N)Cc1c[nH]cn1)C(=O)O [Peptide 4] (H-HK[Lys(Thioacetyl)]LM-OH)
decrease in SIRT1 inhibition potency following truncation of peptide 1a (SIRT1; vs peptide 1a): approximately 6 fold

Further lines, results first:

IC25 for SIRT1 (SIRT1; concentration to achieve 25% inhibition): 2,000 uM
IC25 SIRT1 (SIRT1; concentration to achieve 25% inhibition, 0.5 mM β-NAD+, 0.3 mM peptide substrate): 2,000 (IC25) μM
Structure (SMILES): CC(=S)NCCCC[C@H](NC(=O)OCC1c2ccccc2-c2ccccc21)C(=O)O [N^α-Fmoc-N^ε-thioacetyl-lysine, L-N^α-Fmoc-N^ε-thioacetyl-lysine]

IC50 (SIRT1): 10.4 ± 0.3 µM
Structure (SMILES): CSCC[C@H](NC(=O)[C@H](CC(C)C)NC(=O)[C@H](CCCCNC(C)=S)NC(=O)[C@H](CCCCN)NC(=O)[C@@H](N)Cc1cnc[nH]1)C(=O)O [Peptide 4] (H-HK[Lys(Thioacetyl)]LM-OH)
